pEC50, pKi: −log10 of the molar value. Calls of active or inactive are those of the source. No cut-off for these calls is given here. Positions of bridges follow the written chain, without caps; N, C: chain ends. Non-standard residues stand in square brackets, D forms with d. Residues, ends and D or L forms follow the SMILES beside them. Nle = CCCC[C@H](N)C(=O)O
What was measured:
[1] = test system: Mus musculus; assay: Anorexigenic activity in C57BL/6J mouse assessed as reduction in ghrelin-induced food intake at 0.6 nmol/g body weight, sc measured after 2 hrs post dose; format: functional, organism-based
[2] = test system: Mus musculus; assay: Effect on food intake in C57BL/6J mouse at 0.6 nmol/g body weight, sc measured after 2 hrs post dose; format: ADME, organism-based; settings: in vivo
[3] = biological target: T1, Growth hormone secretagogue receptor type 1 (Homo sapiens, UniProt Q92847); assay: Displacement of […] from SNAP-tagged human GHSR expressed in HEK293T cells after 3 hrs by HTRF assay; format: cell-based
T1 sequence (Q92847 whole entry): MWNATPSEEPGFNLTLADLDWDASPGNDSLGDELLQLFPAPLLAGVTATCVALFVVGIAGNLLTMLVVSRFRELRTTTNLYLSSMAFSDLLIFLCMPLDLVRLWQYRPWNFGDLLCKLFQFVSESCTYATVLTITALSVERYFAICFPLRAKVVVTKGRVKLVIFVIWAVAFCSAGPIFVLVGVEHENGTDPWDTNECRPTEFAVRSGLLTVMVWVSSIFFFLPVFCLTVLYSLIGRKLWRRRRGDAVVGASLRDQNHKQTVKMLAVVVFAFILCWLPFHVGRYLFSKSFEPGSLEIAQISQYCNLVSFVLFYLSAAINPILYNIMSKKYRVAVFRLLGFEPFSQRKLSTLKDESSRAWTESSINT

[4] = biological target: T1, Growth hormone secretagogue receptor type 1; assay: Inverse agonist activity at SNAP-tagged human GHSR expressed in HEK293T cells assessed as reduction in inositol phosphate production after 30 mins by HTRF assay; format: functional, cell-based
[5] = biological target: T1, Growth hormone secretagogue receptor type 1; assay: Competitive antagonist activity at SNAP-tagged human GHSR expressed in HEK293T cells assessed as reduction in ghrelin-induced inositol phosphate production at 1 uM after 30 mins by HTRF assay; format: functional, cell-based; settings: read-out: pA2 (converted)
[6] = biological target: T1, Growth hormone secretagogue receptor type 1; assay: Competitive antagonist activity at human SNAP-tagged GHSR expressed in HEK293T cells assessed as reduction in ghrelin-induced calcium production at 1 uM after 15 mins by Fluo 4-AM dye-based fluorescence assay; format: functional, cell-based; settings: read-out: pA2 (converted)
[7] = biological target: Growth hormone secretagogue receptor type 1 (Rattus norvegicus) (UniProt O08725); assay: Inverse agonist activity at GHSR in Wistar rat pancreatic islets assessed as inhibition of ghrelin-induced insulinostatic action after 1 hr in presence of glucose
Chain of Growth hormone secretagogue receptor type 1 (Rattus norvegicus) (O08725 whole entry, looked up): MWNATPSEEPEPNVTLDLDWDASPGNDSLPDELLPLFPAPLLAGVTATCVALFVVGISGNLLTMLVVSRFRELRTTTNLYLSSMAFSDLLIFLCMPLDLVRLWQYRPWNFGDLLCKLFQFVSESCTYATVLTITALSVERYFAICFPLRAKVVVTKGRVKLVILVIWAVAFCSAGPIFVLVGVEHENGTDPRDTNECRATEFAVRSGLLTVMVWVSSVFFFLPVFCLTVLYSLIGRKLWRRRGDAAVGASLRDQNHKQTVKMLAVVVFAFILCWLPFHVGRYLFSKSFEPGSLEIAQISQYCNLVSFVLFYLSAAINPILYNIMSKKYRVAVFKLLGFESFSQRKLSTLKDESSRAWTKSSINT

CC(C)C[C@H](NC(=O)[C@H](CO)NC(=O)[C@@H]1CSSC[C@@H]2NC(=O)[C@H](CCC(=O)O)NC(=O)[C@H](CO)NC(=O)[C@@H](CC(=O)O)NC(=O)[C@@H](CC(=O)O)NC(=O)[C@@H](CCCNC(=N)N)NC(=O)[C@H](NC(=O)[C@@H](CO)NC(=O)[C@@H](C)N)CSSC[C@H](NC(=O)[C@H](CC(C)C)NC(=O)[C@H](CCCNC(=N)N)NC(=O)[C@H]([C@@H](C)O)NC(=O)[C@H]([C@@H](C)O)NC2=O)C(=O)N[C@@H](CCCNC(=N)N)C(=O)N[C@@H](CCCCN)C(=O)N[C@@H](CCCNC(=N)N)C(=O)N[C@@H](CCCNC(=N)N)C(=O)N1)C(=O)N[C@@H](CO)C(=O)N[C@H](C(=O)N[C@@H](C)C(=O)N[C@@H](CCC(N)=O)C(=O)N[C@@H](CCC(=O)O)C(=O)O)C(C)C was tested, and the Activity [1] was “inactive”.

For CCCC[C@H](N)C(=O)N[C@H](C(=O)N1CCC[C@H]1C(=O)N[C@@H](Cc1ccccc1)C(=O)N[C@@H](Cc1c[nH]c2ccccc12)C(=O)N[C@@H](CCCNC(=N)N)C(=O)NCC(=O)N[C@H](C(=O)N[C@@H](CO)C(=O)N[C@@H](CC(C)C)C(=O)N[C@@H](CCCNC(=N)N)C(=O)N1CCC[C@H]1C(=O)N[C@H](C(=O)NCC(=O)N[C@H](C)C(=O)N[C@H](CO)C(=O)N[C@@H]1CSSC[C@@H]2NC(=O)[C@H](CC(C)C)NC(=O)[C@H](CCCNC(=N)N)NC(=O)[C@H]([C@@H](C)O)NC(=O)[C@H]([C@@H](C)O)NC(=O)[C@H](CSSC[C@@H](C(=O)N[C@@H](CO)C(=O)N[C@@H](CC(C)C)C(=O)N[C@@H](CO)C(=O)N[C@H](C(=O)N[C@@H](C)C(=O)N[C@@H](CCC(N)=O)C(=O)N[C@@H](CCC(=O)O)C(=O)O)C(C)C)NC(=O)[C@H](CCCNC(=N)N)NC(=O)[C@H](CCCNC(=N)N)NC(=O)[C@H](CCCCN)NC(=O)[C@H](CCCNC(=N)N)NC2=O)NC(=O)[C@H](CCC(=O)O)NC(=O)[C@H](CO)NC(=O)[C@@H](CC(=O)O)NC(=O)[C@@H](CC(=O)O)NC(=O)[C@@H](CCCNC(=N)N)NC1=O)[C@@H](C)CC)C(C)C)[C@@H](C)O, the Activity [1] was “Active”.

In the case of CC[C@H](C)[C@@H]1NC(=O)[C@@H]2CSSC[C@@H](C(=O)N[C@@H](CO)C(=O)N[C@@H](CC(C)C)C(=O)N[C@@H](CO)C(=O)N[C@H](C(=O)N[C@@H](C)C(=O)N[C@@H](CCC(N)=O)C(=O)N[C@@H](CCC(=O)O)C(=O)O)C(C)C)NC(=O)[C@H](CCCNC(=N)N)NC(=O)[C@H](CCCNC(=N)N)NC(=O)[C@H](CCCCN)NC(=O)[C@H](CCCNC(=N)N)NC(=O)[C@H](CSSC[C@H](NC(=O)[C@H](CO)NC(=O)[C@H](C)N)C(=O)N[C@@H](CCCNC(=N)N)C(=O)N[C@@H](CC(=O)O)C(=O)N[C@@H](CC(=O)O)C(=O)N[C@@H](CO)C(=O)N[C@@H](CCC(=O)O)C(=O)N2)NC(=O)[C@H](CC(C)C)NC(=O)[C@H](CCCNC(=N)N)NC(=O)[C@H]([C@@H](C)O)NC1=O (H-ASCRDDSECITRLCRKRRCSLSVAQE-OH; disulfide 3-14, 9-19), the Activity [2] was “Non-Toxic”.

For CC[C@H](C)[C@@H]1NC(=O)[C@@H]2CSSC[C@@H](C(=O)N[C@@H](CO)C(=O)N[C@@H](CC(C)C)C(=O)N[C@@H](CO)C(=O)N[C@H](C(=O)N[C@@H](C)C(=O)N[C@@H](CCC(N)=O)C(=O)N[C@@H](CCC(=O)O)C(=O)O)C(C)C)NC(=O)[C@H](CCCNC(=N)N)NC(=O)[C@H](CCCNC(=N)N)NC(=O)[C@H](CCCCN)NC(=O)[C@H](CCCNC(=N)N)NC(=O)[C@H](CSSC[C@H](NC(=O)[C@H](CO)NC(=O)[C@H](C)NC(=O)CNC(=O)[C@@H](NC(=O)[C@@H]3CCCN3C(=O)[C@H](CCCNC(=N)N)NC(=O)[C@H](CC(C)C)NC(=O)[C@H](CO)NC(=O)[C@@H](NC(=O)CNC(=O)[C@H](CCCNC(=N)N)NC(=O)[C@H](Cc3c[nH]c4ccccc34)NC(=O)[C@H](Cc3ccccc3)NC(=O)[C@@H]3CCCN3C(=O)[C@@H](NC(=O)[C@@H](N)CCSC)[C@@H](C)O)C(C)C)[C@@H](C)CC)C(=O)N[C@@H](CCCNC(=N)N)C(=O)N[C@@H](CC(=O)O)C(=O)N[C@@H](CC(=O)O)C(=O)N[C@@H](CO)C(=O)N[C@@H](CCC(=O)O)C(=O)N2)NC(=O)[C@H](CC(C)C)NC(=O)[C@H](CCCNC(=N)N)NC(=O)[C@H]([C@@H](C)O)NC1=O (H-MTPFWRGVSLRPIGASCRDDSECITRLCRKRRCSLSVAQE-OH; disulfide 17-28, 23-33), the pKi [3] was 8.90, the pEC50 [4] was 7.64 and the Activity [2] was “Non-Toxic”. It also gave a Kb [5] of 1.48 nM and a Kb [6] of 10.2 nM.

CCCC[C@H](N)C(=O)N[C@H](C(=O)N1CCC[C@H]1C(=O)N[C@@H](Cc1ccccc1)C(=O)N[C@@H](Cc1c[nH]c2ccccc12)C(=O)N[C@@H](CCCNC(=N)N)C(N)=O)[C@@H](C)O (H-[Nle]TPFWR-NH2) gave a pKi [3] of 7.26 and a pEC50 [4] of 5.18.

CCCC[C@H](N)C(=O)N[C@H](C(=O)N1CCC[C@H]1C(=O)N[C@@H](Cc1ccccc1)C(=O)N[C@@H](Cc1c[nH]c2ccccc12)C(=O)N[C@@H](CCCNC(=N)N)C(=O)NCC(=O)N[C@H](C(N)=O)C(C)C)[C@@H](C)O (H-[Nle]TPFWRGV-NH2) showed a pKi [3] of 8.19 and a pEC50 [4] of 6.43.

For CCCC[C@H](N)C(=O)N[C@H](C(=O)N1CCC[C@H]1C(=O)N[C@@H](Cc1ccccc1)C(=O)N[C@@H](Cc1c[nH]c2ccccc12)C(=O)N[C@@H](CCCNC(=N)N)C(=O)NCC(=O)N[C@H](C(=O)N[C@@H](CO)C(=O)N[C@@H](CC(C)C)C(N)=O)C(C)C)[C@@H](C)O (H-[Nle]TPFWRGVSL-NH2), the pKi [3] was 8.47 and the pEC50 [4] was 6.87.

In the case of CCCC[C@H](N)C(=O)N[C@H](C(=O)N1CCC[C@H]1C(=O)N[C@@H](Cc1ccccc1)C(=O)N[C@@H](Cc1c[nH]c2ccccc12)C(=O)N[C@@H](CCCNC(=N)N)C(=O)NCC(=O)N[C@H](C(=O)N[C@@H](CO)C(=O)N[C@@H](CC(C)C)C(=O)N[C@@H](CCCNC(=N)N)C(=O)N1CCC[C@H]1C(N)=O)C(C)C)[C@@H](C)O (H-[Nle]TPFWRGVSLRP-NH2), the pKi [3] was 8.57, the pEC50 [4] was 7.34 and the Activity [2] was “Non-Toxic”. For the same compound, the Activity [1] was “Active” and the Activity [7] was “Active”.

Work on CCCC[C@H](N)C(=O)N[C@H](C(=O)N1CCC[C@H]1C(=O)N[C@@H](Cc1ccccc1)C(=O)N[C@@H](Cc1c[nH]c2ccccc12)C(=O)N[C@@H](CCCNC(=N)N)C(=O)NCC(=O)N[C@H](C(=O)N[C@@H](CO)C(=O)N[C@@H](CC(C)C)C(=O)N[C@@H](CCCNC(=N)N)C(=O)N1CCC[C@H]1C(=O)N[C@H](C(=O)NCC(N)=O)[C@@H](C)CC)C(C)C)[C@@H](C)O (H-[Nle]TPFWRGVSLRPIG-NH2) yielded a pKi [3] of 8.52 and a pEC50 [4] of 7.32.

For CCCC[C@H](N)C(=O)N[C@H](C(=O)N1CCC[C@H]1C(=O)N[C@@H](Cc1ccccc1)C(=O)N[C@@H](Cc1c[nH]c2ccccc12)C(=O)N[C@@H](CCCNC(=N)N)C(=O)NCC(=O)N[C@H](C(=O)N[C@@H](CO)C(=O)N[C@@H](CC(C)C)C(=O)N[C@@H](CCCNC(=N)N)C(=O)N1CCC[C@H]1C(=O)N[C@H](C(=O)NCC(=O)O)[C@@H](C)CC)C(C)C)[C@@H](C)O (H-[Nle]TPFWRGVSLRPIG-OH), the pKi [3] was 8.44, the pEC50 [4] was 7.12 and the Kb [5] was 34.7 nM. The Kb [6] was 89.1 nM.

— ChEMBL document CHEMBL4368902 (J Med Chem, 2019)
